Positions of bridges follow the written chain, without caps; N, C: chain ends. Non-standard residues stand in square brackets, D forms with d. Residues, ends and D or L forms follow the SMILES beside them. Groups on a side chain read outwards from the residue. *: point of attachment. X2 = C[N+](C)(CCNC(=O)CCCCCCCCCCCCCCCCC(=O)O)CC(=O)NCC[N+](C)(C)CC(=O)*; X1 = C[N+](C)(CCNC(=O)CCCCCCCCCCCCCCCCC(=O)O)CC(=O)*; X5 = CCCCCCCCCCCCCCCC(=O)NCC[N+](C)(C)CC(=O)*; C18 diacid = O=C(O)CCCCCCCCCCCCCCCCC(=O)*; Dip = N[C@H](C(=O)O)C(c1ccccc1)c1ccccc1; Pro(3S-OH) = O=C(O)[C@H]1NCC[C@@H]1O; Pro(3R-OH) = O=C(O)[C@H]1NCC[C@H]1O; Palmitoyl = CCCCCCCCCCCCCCCC(=O)*; NMeT = CN[C@H](C(=O)O)[C@@H](C)O; 3Pal = N[C@@H](Cc1cccnc1)C(=O)O; β3hF = N[C@H](CC(=O)O)Cc1ccccc1; Aad = N[C@@H](CCCC(=O)O)C(=O)O; NMeK = CN[C@@H](CCCCN)C(=O)O; Tle = CC(C)(C)[C@H](N)C(=O)O; Isovaleryl = CC(C)CC(=O)*; dDap = NC[C@@H](N)C(=O)O; Dap = NC[C@H](N)C(=O)O; AEEA = NCCOCCOCC(=O)O; Ahx = NCCCCCC(=O)O
Molecular target: T1, ferroportin (Homo sapiens, UniProt Q9NP59)
T1 sequence (Q9NP59 1-571): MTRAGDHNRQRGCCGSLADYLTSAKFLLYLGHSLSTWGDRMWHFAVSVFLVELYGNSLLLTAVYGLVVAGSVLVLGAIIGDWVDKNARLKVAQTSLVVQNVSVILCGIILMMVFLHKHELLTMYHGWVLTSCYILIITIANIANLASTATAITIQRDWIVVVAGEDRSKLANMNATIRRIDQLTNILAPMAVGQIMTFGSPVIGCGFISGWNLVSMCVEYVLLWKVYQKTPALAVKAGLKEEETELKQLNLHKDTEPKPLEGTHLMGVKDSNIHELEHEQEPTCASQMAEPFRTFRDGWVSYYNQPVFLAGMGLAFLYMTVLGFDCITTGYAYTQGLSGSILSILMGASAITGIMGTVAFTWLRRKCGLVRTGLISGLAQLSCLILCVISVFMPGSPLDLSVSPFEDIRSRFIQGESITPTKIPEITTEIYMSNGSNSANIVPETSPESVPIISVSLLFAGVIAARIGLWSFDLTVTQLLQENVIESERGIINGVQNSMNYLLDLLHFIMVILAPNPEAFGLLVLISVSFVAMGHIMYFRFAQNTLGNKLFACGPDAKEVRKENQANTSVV
Test: T47D cell-based ferroportin internalization assay in presence of mouse serum albumin (MSA)
Parameters: a human breast carcinoma adherent cell line which endogenously expresses ferroportin; host or cells: T47D
Details: T47D internalization assay in presence of mouse serum albumin (MSA); Table 6E
Method: The potency of the peptides in causing ferroportin internalization was evaluated in a T47D cell-based assay. […] In this internalization assay, the potency of the test peptides was evaluated in presence of serum albumin which is the main protein component in the blood. T47D cells were maintained in RPMI media (containing required amount of fetal bovine serum) and regularly sub-cultured. In preparation for the assay, the cells were seeded in 96-well plates at a density of 80-100 k cells per well in 100 ul volume and allowed to rest overnight. […] Sigma, A3139). The test peptide dilution series were allowed to incubate at room temperature for 30 min. Then the media was aspirated from the 96-well cell plate and test peptide dilution series were added. […] The AF647-conjugated detection peptide was previously verified to bind to ferroportin and cause its internalization. The cells were washed again after a 2 hr incubation in preparation for flow cytometry analysis. The Median Fluorescence Intensity (MFI) of the AF647-positive population was measured (after removing dead cells and non-singlets from the analysis). The MFI values were used to generate a dose-response curve and obtain IC50 potencies for the test peptides.

IC50 [µM] | SMILES
0.01 to 0.1 | CC(C)CC(=O)N[C@@H](CCCC(=O)O)C(=O)N[C@H](C(=O)N[C@@H](Cc1cccnc1)C(=O)N[C@H](C(=O)N1CCC[C@H]1C(=O)N[C@H]1CSSC[C@@H](C(=O)N(C)[C@@H](CCCCNC(=O)COCCOCCNC(=O)COCCOCCNC(=O)[C@H](CN)NC(=O)CCCCCCCCCCCCCCCCC(=O)O)C(=O)N[C@H](CC(=O)N[C@H](CCCCN)C(N)=O)Cc2ccccc2)NC1=O)C(c1ccccc1)c1ccccc1)[C@@H](C)O [compound 246] (Isovaleryl-[Aad]T[3Pal][Dip]PCC[NMeK]([AEEA-AEEA-Dap-C18 diacid])[β3hF][dK]-NH2; disulfide 6-7)
0.01 to 0.1 | CC(C)CC(=O)N[C@@H](CCC(=O)O)C(=O)N1CC[C@H](O)[C@H]1C(=O)N[C@@H](Cc1c[nH]cn1)C(=O)N[C@H](C(=O)N1CCC[C@H]1C(=O)N[C@H]1CSSC[C@@H](C(=O)N(C)[C@@H](CCCCNC(=O)COCCOCCNC(=O)COCCOCCNC(=O)[C@H](CN)NC(=O)CCCCCCCCCCCCCCCCC(=O)O)C(=O)N[C@H](CC(=O)N[C@H](CCCCN)C(N)=O)Cc2ccccc2)NC1=O)C(c1ccccc1)c1ccccc1 [compound 253] (Isovaleryl-E[Pro(3S-OH)]H[Dip]PCC[NMeK]([AEEA-AEEA-Dap-C18 diacid])[β3hF][dK]-NH2; disulfide 6-7)

Same assay, conditions: Table 6E; T47D internalization assay with MSA

IC50 [µM] | SMILES
> 0.5 | CC(C)CC(=O)N[C@@H](CCC(=O)O)C(=O)N1CCC[C@H]1C(=O)N[C@@H](Cc1c[nH]cn1)C(=O)N[C@H](C(=O)N1CCC[C@H]1C(=O)N[C@H]1CSSC[C@@H](C(=O)N(C)[C@@H](CCCCNC(=O)CCCCCNC(=O)C[N+](C)(C)CCNC(=O)CCCCCCCCCCCCCCCCC(=O)O)C(=O)N[C@H](C(=O)N[C@H](CCCCN)C(N)=O)C(c2ccccc2)c2ccccc2)NC1=O)C(c1ccccc1)c1ccccc1 [compound 188] (Isovaleryl-EPH[Dip]PCC[NMeK]([Ahx-X1])[Dip][dK]-NH2; disulfide 6-7)
0.01 to 0.1 | CC(C)CC(=O)N[C@@H](CCC(=O)O)C(=O)N[C@H](C(=O)N[C@@H](Cc1cnc[nH]1)C(=O)N[C@H](C(=O)N1CCC[C@H]1C(=O)N[C@H]1CSSC[C@@H](C(=O)N(C)[C@@H](CCCCNC(=O)CCCCCNC(=O)C[N+](C)(C)CCNC(=O)CCCCCCCCCCCCCCCCC(=O)O)C(=O)N[C@H](C(=O)N[C@H](CCCCN)C(N)=O)C(c2ccccc2)c2ccccc2)NC1=O)C(c1ccccc1)c1ccccc1)[C@@H](C)O [compound 198] (Isovaleryl-ETH[Dip]PCC[NMeK]([Ahx-X1])[Dip][dK]-NH2; disulfide 6-7)
0.1 to 0.5 | COC(=O)CC[C@H](NC(=O)CC(C)C)C(=O)N(C)[C@H](C(=O)N[C@@H](Cc1c[nH]cn1)C(=O)N[C@H](C(=O)N1CCC[C@H]1C(=O)N[C@H]1CSSC[C@@H](C(=O)N(C)[C@@H](CCCCNC(=O)CCCCCNC(=O)C[N+](C)(C)CCNC(=O)CCCCCCCCCCCCCCCCC(=O)O)C(=O)N[C@H](C(=O)N(C)[C@@H](CCCCN)C(N)=O)C(c2ccccc2)c2ccccc2)NC1=O)C(c1ccccc1)c1ccccc1)[C@@H](C)O [compound 153] (Isovaleryl-E(OMe)[NMeT]H[Dip]PCC[NMeK]([Ahx-X1])[Dip][NMeK]-NH2; disulfide 6-7)
0.01 to 0.1 | COC(=O)CC[C@H](NC(=O)CC(C)C)C(=O)N[C@H](C(=O)N[C@@H](Cc1c[nH]cn1)C(=O)N[C@H](C(=O)N1CCC[C@H]1C(=O)N[C@H]1CSSC[C@@H](C(=O)N[C@H](CCCCNC(=O)CCCCCNC(=O)C[N+](C)(C)CCNC(=O)CCCCCCCCCCCCCCCCC(=O)O)C(=O)N[C@H](C(=O)N[C@H](C(N)=O)C(C)(C)C)C(c2ccccc2)c2ccccc2)NC1=O)C(c1ccccc1)c1ccccc1)[C@@H](C)O [compound 212] (Isovaleryl-E(OMe)TH[Dip]PCC[dK]([Ahx-X1])[Dip][Tle]-NH2; disulfide 6-7)
0.01 to 0.1 | CC(C)CC(=O)N[C@@H](CCC(=O)O)C(=O)N[C@H](C(=O)N[C@@H](Cc1c[nH]cn1)C(=O)N[C@H](C(=O)N1CCC[C@H]1C(=O)N[C@H]1CSSC[C@@H](C(=O)N(C)[C@@H](CCCCNC(=O)COCCOCCNC(=O)COCCOCCNC(=O)C[N+](C)(C)CCNC(=O)CCCCCCCCCCCCCCCCC(=O)O)C(=O)N[C@H](C(=O)N[C@H](CCCCN)C(N)=O)C(c2ccccc2)c2ccccc2)NC1=O)C(c1ccccc1)c1ccccc1)[C@@H](C)O [compound 158] (Isovaleryl-ETH[Dip]PCC[NMeK]([AEEA-AEEA-X1])[Dip][dK]-NH2; disulfide 6-7)
0.01 to 0.1 | CC(C)CC(=O)N[C@@H](CCC(=O)O)C(=O)N1CC[C@@H](O)[C@H]1C(=O)N[C@@H](Cc1c[nH]cn1)C(=O)N[C@H](C(=O)N1CCC[C@H]1C(=O)N[C@H]1CSSC[C@@H](C(=O)N(C)[C@@H](CCCCNC(=O)CCCCCNC(=O)C[N+](C)(C)CCNC(=O)CCCCCCCCCCCCCCCCC(=O)O)C(=O)N[C@H](C(=O)N[C@H](CCCCN)C(N)=O)C(c2ccccc2)c2ccccc2)NC1=O)C(c1ccccc1)c1ccccc1 [compound 191] (Isovaleryl-E[Pro(3R-OH)]H[Dip]PCC[NMeK]([Ahx-X1])[Dip][dK]-NH2; disulfide 6-7)
0.01 to 0.1 | COC(=O)CC[C@H](NC(=O)CC(C)C)C(=O)N[C@H](C(=O)N[C@@H](Cc1c[nH]cn1)C(=O)N[C@H](C(=O)N1CCC[C@H]1C(=O)N[C@H]1CSSC[C@@H](C(=O)N[C@@H](CCCCNC(=O)C[N+](C)(C)CCNC(=O)C[N+](C)(C)CCNC(=O)CCCCCCCCCCCCCCCCC(=O)O)C(=O)N[C@H](C(=O)N[C@H](CCCCN)C(N)=O)C(c2ccccc2)c2ccccc2)NC1=O)C(c1ccccc1)c1ccccc1)[C@@H](C)O [compound 209] (Isovaleryl-E(OMe)TH[Dip]PCCK(X2)[Dip][dK]-NH2; disulfide 6-7)
0.01 to 0.1 | COC(=O)CC[C@H](NC(=O)CC(C)C)C(=O)N1CC[C@@H](O)[C@H]1C(=O)N[C@@H](Cc1c[nH]cn1)C(=O)N[C@H](C(=O)N1CCC[C@H]1C(=O)N[C@H]1CSSC[C@@H](C(=O)N(C)[C@@H](CCCCNC(=O)CCCCCNC(=O)C[N+](C)(C)CCNC(=O)CCCCCCCCCCCCCCCCC(=O)O)C(=O)N[C@H](C(=O)N[C@H](CCCCN)C(N)=O)C(c2ccccc2)c2ccccc2)NC1=O)C(c1ccccc1)c1ccccc1 [compound 155] (Isovaleryl-E(OMe)[Pro(3R-OH)]H[Dip]PCC[NMeK]([Ahx-X1])[Dip][dK]-NH2; disulfide 6-7)

Continued, compound first:

SMILES | IC50 [µM]
CCCCCCCCCCCCCCCC(=O)NCCCCCC(=O)NCCCC[C@@H](C(=O)N[C@H](C(=O)N[C@H](CCCCN)C(N)=O)C(c1ccccc1)c1ccccc1)N(C)C(=O)[C@@H]1CSSC[C@H](NC(=O)[C@@H]2CCCN2C(=O)[C@@H](NC(=O)[C@H](Cc2cnc[nH]2)NC(=O)[C@H]([C@@H](C)O)N(C)C(=O)[C@H](CCC(=O)O)NC(=O)CC(C)C)C(c2ccccc2)c2ccccc2)C(=O)N1 [compound 173] (Isovaleryl-E[NMeT]H[Dip]PCC[NMeK]([Ahx-Palmitoyl])[Dip][dK]-NH2; disulfide 6-7) | 0.001 to 0.01
CCCCCCCCCCCCCCCC(=O)NCCCCCC(=O)NCCCC[C@@H](C(=O)N[C@H](C(=O)N[C@H](CCCCN)C(N)=O)C(c1ccccc1)c1ccccc1)N(C)C(=O)[C@@H]1CSSC[C@H](NC(=O)[C@@H]2CCCN2C(=O)[C@@H](NC(=O)[C@H](Cc2cnc[nH]2)NC(=O)[C@@H]2CCCN2C(=O)[C@H](CCC(=O)O)NC(=O)CC(C)C)C(c2ccccc2)c2ccccc2)C(=O)N1 [compound 171] (Isovaleryl-EPH[Dip]PCC[NMeK]([Ahx-Palmitoyl])[Dip][dK]-NH2; disulfide 6-7) | 0.001 to 0.01
CCCCCCCCCCCCCCCC(=O)NCCCCCC(=O)NCCCC[C@@H](C(=O)N[C@H](C(=O)N[C@H](CN)C(N)=O)C(c1ccccc1)c1ccccc1)N(C)C(=O)[C@@H]1CSSC[C@H](NC(=O)[C@@H]2CCCN2C(=O)[C@@H](NC(=O)[C@H](Cc2cnc[nH]2)NC(=O)[C@@H](NC(=O)[C@H](CCC(=O)O)NC(=O)CC(C)C)[C@@H](C)O)C(c2ccccc2)c2ccccc2)C(=O)N1 [compound 165] (Isovaleryl-ETH[Dip]PCC[NMeK]([Ahx-Palmitoyl])[Dip][dDap]-NH2; disulfide 6-7) | 0.001 to 0.01
CCCCCCCCCCCCCCCC(=O)NCC[N+](C)(C)CC(=O)NCCCC[C@@H](C(=O)N[C@H](C(=O)N[C@H](CCCCN)C(N)=O)C(c1ccccc1)c1ccccc1)N(C)C(=O)[C@@H]1CSSC[C@H](NC(=O)[C@@H]2CCCN2C(=O)[C@@H](NC(=O)[C@H](Cc2cnc[nH]2)NC(=O)[C@@H]2[C@H](O)CCN2C(=O)[C@H](CCC(=O)O)NC(=O)CC(C)C)C(c2ccccc2)c2ccccc2)C(=O)N1 [compound 152] (Isovaleryl-E[Pro(3R-OH)]H[Dip]PCC[NMeK](X5)[Dip][dK]-NH2; disulfide 6-7) | 0.001 to 0.01

Source: patent US20250277012A1 (Protagonist Therapeutics, Inc., priority 2021, published 2025)
